Results taken from patent US7741488B2, “Tetrahydropyridothiophenes as antiproliferative agents for the treatment of cancer” (4SC AG, priority 2005, dated 2010).

Key:
[1] = test system: RKO (RKOp27) human colon adenocarcinoma cells; assay: Alamar Blue cell viability assay, anti-proliferative/cytotoxic activity on proliferating (uninduced) RKO p27 cells; assay type: cell-based; settings: RKOp27, 72 h, proliferating cells without inducer Ponasterone A
Experimental: The anti-proliferative/cytotoxic activity of the compounds described herein, can be tested on subclones of RKO (RKOp27) human colon adenocarcinoma cells (Schmidt et al., Oncogene 19, 2423-2429; 2000) using the Alamar Blue cell viability assay (described in O'Brien et al. Eur J Biochem 267, 5421-5426, 2000). The compounds are dissolved as 20 mM solutions in dimethylsulfoxide (DMSO) and subsequently diluted in semi-logarithmic steps. DMSO dilutions are further diluted 1:100 into Dulbecco's modified Eagle's medium (DMEM) containing 10% fetal calf serum to a final concentration twice as much as the final concentration in the test. RKO subclones are seeded into 96 well flat bottom plates at a density of 4000 cells per well in a volume of 50 μl per well. 24 hours after seeding the 50 μl each of the compound dilutions in DMEM medium are added into each well of the 96 Well plate. Each compound dilution is tested as quadruplicates. Wells containing untreated control cells are filled with 50 μl DMEM medium containing 1% DMSO. The cells are then incubated with the substances for 72 hours at 37° C. in a humidified atmosphere containing 5% carbon dioxide. To determine the viability of the cells, 10 μl of an Alamar Blue solution (Biosource) are added and the fluorescence is measured at an extinction of 544 nm and an emission of 590 nm. For the calculation of the cell viability the emission value from untreated cells is set as 100% viability and the emission rates of treated cells are set in relation to the values of untreated cells. Viabilities are expressed as % values.
The corresponding IC50 values of the compounds for anti-proliferative/cytotoxic activity are determined from the concentration-effect curves.
Representative IC50 values for anti-proliferation/cytotoxicity determined in the mentioned assay follow from the following table A, in which the numbers of the compound correspond to the numbers of the examples.

[2] = test system: RKOp27 colon adenocarcinoma cells arrested by expression of ectopic p27Kip1; assay: Alamar Blue cell viability assay on RKO p27 cells arrested by Ponasterone A induced p27Kip1 (cell cycle specific mode of action); assay type: cell-based; settings: Homo sapiens, 72 hours, cells arrested by p27Kip1 induced with 10 μM Ponasterone A
Experimental: To determine the cell cycle specific mode of action, subclones of RKO colon adenocarcinoma cells (RKOp27 or RKOp21 as described by Schmidt et al. in Oncogene 19, 2423-2429; 2000) are seeded into 96 well flat bottom plates at a density of 16000 cells per well in a volume of 50 μl per well in DMEM growth medium with 10% FCS containing 10 μM Ponasterone A. 24 hours after seeding the 50 μl each of the compound dilutions in DMEM medium are added into each well of the 96 Well plate. Each compound dilution is tested as quadruplicates. Wells containing untreated control cells are filled with 50 μl DMEM medium containing 1% DMSO. The cells are then incubated with the substances for 72 hours at 37° C. in a humidified atmosphere containing 5% carbon dioxide. To determine the viability of the cells, 10 μl of an Alamar Blue solution (Biosource) are added and the fluorescence was measured at an extinction of 544 nm and an emission of 590 nm. For the calculation of the cell viability the emission value from untreated cells is set as 100% viability and the emission rates of treated cells are set in relation to the values of untreated cells. Viabilities are expressed as % values. Viability is compared of proliferating cells grown in the absence of the inducer Ponasterone A, versus viability of cells arrested by the expression of ectopic p27Kip1 induced by Ponasterone A.

SMILES | IC50 [2] | IC50 [1]
COc1ccc(C)cc1CCC(=O)Nc1sc2c(c1C#N)CCN(C(=O)OCC(O)CO)C2 (stereo not shown) [Example 52, 3-Cyano-2-[3-(2-methoxy-5-methyl-phenyl)-propanoylamino]-4,7-dihydro-5H-thieno[2,3-c]pyridine-6-carboxylic acid 2,3-dihydroxy-propyl ester] | > 100000 nM | 300 to 2000 nM
COc1cccc(CCC(=O)Nc2sc3c(c2C#N)CCN(C(=O)OCCO)C3)c1 [Example 53, 3-Cyano-2-[3-(3-methoxy-phenyl)-propanoylamino]-4,7-dihydro-5H-thieno[2,3-c]pyridine-6-carboxylic acid 2-hydroxy-ethyl ester] | > 100000 nM | 300 to 2000 nM
CCOC(=O)N1CCc2c(sc(NC(=O)C3CC3c3cc(C)ccc3OC)c2C#N)C1 (stereo not shown) [Example 54, 3-Cyano-2-({1-[2-(2-methoxy-5-methyl-phenyl)-cyclopropyl]-methanoyl}-amino)-4,7-dihydro-5H-thieno[2,3-c]pyridine-6-carboxylic acid ethyl ester] | > 100000 nM | 300 to 2000 nM
COc1ccc(OC)c(CCC(=O)Nc2sc3c(c2C#N)CCN(C(=O)OCCc2ccccn2)C3)c1 [Example 55, 3-Cyano-2-[3-(2,5-dimethoxy-phenyl)-propanoylamino]-4,7-dihydro-5H-thieno[2,3-c]pyridine-6-carboxylic acid 2-pyridin-2-yl-ethyl ester] | > 100000 nM | 300 to 2000 nM
COc1ccc(C)cc1CCC(=O)Nc1sc2c(c1C#N)CCN(C(=O)OCCN1CCOCC1)C2 [Example 56, 3-Cyano-2-[3-(2-methoxy-5-methyl-phenyl)-propanoylamino]-4,7-dihydro-5H-thieno[2,3-c]pyridine-6-carboxylic acid 2-morpholin-4-yl-ethyl ester] | > 100000 nM | 300 to 2000 nM
COc1cccc(CCC(=O)Nc2sc3c(c2C#N)CCN(C(=O)OCCn2ccnc2)C3)c1 [Example 58, 3-Cyano-2-[3-(3-methoxy-phenyl)-propanoylamino]-4,7-dihydro-5H-thieno[2,3-c]pyridine-6-carboxylic acid 2-imidazol-1-yl-ethyl ester] | > 100000 nM | 300 to 2000 nM
COc1ccccc1CCC(=O)Nc1sc2c(c1C#N)CCN(C(=O)OCCc1cccnc1)C2 [Example 61, 3-Cyano-2-[3-(2-methoxy-phenyl)-propanoylamino]-4,7-dihydro-5H-thieno[2,3-c]pyridine-6-carboxylic acid 2-pyridin-3-yl-ethyl ester] | > 100000 nM | ≤ 300 nM
COc1cccc(CCC(=O)Nc2sc3c(c2C#N)CCN(C(=O)OCCc2cccnc2)C3)c1 [Example 63, 3-Cyano-2-[3-(3-methoxy-phenyl)-propanoylamino]-4,7-dihydro-5H-thieno[2,3-c]pyridine-6-carboxylic acid 2-pyridin-3-yl-ethyl ester] | ≥ 40000 nM | ≤ 300 nM
COc1ccccc1CCC(=O)Nc1sc2c(c1C#N)CCN(C(=O)OCCn1ccnc1)C2 [Example 73, 3-Cyano-2-[3-(2-methoxy-phenyl)-propanoylamino]-4,7-dihydro-5H-thieno[2,3-c]pyridine-6-carboxylic acid 2-imidazol-1-yl-ethyl ester] | > 100000 nM | ≤ 300 nM
COc1cccc(CCC(=O)Nc2sc3c(c2C#N)CCN(C(=O)OCc2nccn2C)C3)c1 [Example 119, 3-Cyano-2-[3-(3-methoxy-phenyl)-propanoylamino]-4,7-dihydro-5H-thieno[2,3-c]pyridine-6-carboxylic acid 1-methyl-1H-imidazol-2-ylmethyl ester] | > 100000 nM | ≤ 300 nM
COc1ccccc1CCC(=O)Nc1sc2c(c1C#N)CCN(C(=O)OCc1nccn1C)C2 [Example 122, 3-Cyano-2-[3-(2-methoxy-phenyl)-propanoylamino]-4,7-dihydro-5H-thieno[2,3-c]pyridine-6-carboxylic acid 1-methyl-1H-imidazol-2-ylmethyl ester] | ≥ 10000 nM | ≤ 300 nM
COc1ccccc1CCC(=O)Nc1sc2c(c1C#N)CCN(C(=O)OCc1cncn1C)C2 [Example 123, 3-Cyano-2-[3-(2-methoxy-phenyl)-propanoylamino]-4,7-dihydro-5H-thieno[2,3-c]pyridine-6-carboxylic acid 3-methyl-3H-imidazol-4-ylmethyl ester] | > 100000 nM | ≤ 300 nM
COc1ccccc1CCC(=O)Nc1sc2c(c1C#N)CCN(C(=O)OCCn1ccnc1C)C2 [Example 124, 3-Cyano-2-[3-(2-methoxy-phenyl)-propanoylamino]-4,7-dihydro-5H-thieno[2,3-c]pyridine-6-carboxylic acid 2-(2-methyl-imidazol-1-yl)-ethyl ester] | ≥ 10000 nM | ≤ 300 nM
COc1ccc(C)cc1CCC(=O)Nc1sc2c(c1C#N)CCN(C(=O)OCc1cncn1C)C2 [Example 130, 3-Cyano-2-[3-(2-methoxy-5-methyl-phenyl)-propanoylamino]-4,7-dihydro-5H-thieno[2,3-c]pyridine-6-carboxylic acid 3-methyl-3H-imidazol-4-ylmethyl ester] | ≥ 10000 nM | 300 to 2000 nM

Now from value to compound, other results behind:

IC50 [2] | SMILES | IC50 [1]
≥ 40000 nM | COc1ccc(C)cc1CCC(=O)Nc1sc2c(c1C#N)CCN(C(=O)OCc1cnccc1OC)C2 [Example 57, 3-Cyano-2-[3-(2-methoxy-5-methyl-phenyl)-propanoylamino]-4,7-dihydro-5H-thieno[2,3-c]pyridine-6-carboxylic acid 4-methoxy-pyridin-3-ylmethyl ester] | 300 to 2000 nM
> 100000 nM | COc1ccccc1CCC(=O)Nc1sc2c(c1C#N)CCN(C(=O)OCCc1ccncc1)C2 [Example 62, 3-Cyano-2-[3-(2-methoxy-phenyl)-propanoylamino]-4,7-dihydro-5H-thieno[2,3-c]pyridine-6-carboxylic acid 2-pyridin-4-yl-ethyl ester] | ≤ 300 nM
> 100000 nM | COc1cccc(CCC(=O)Nc2sc3c(c2C#N)CCN(C(=O)OCCc2ccncc2)C3)c1 [Example 64, 3-Cyano-2-[3-(3-methoxy-phenyl)-propanoylamino]-4,7-dihydro-5H-thieno[2,3-c]pyridine-6-carboxylic acid 2-pyridin-4-yl-ethyl ester] | ≤ 300 nM
> 100000 nM | COc1ccc(C)cc1CCC(=O)Nc1sc2c(c1C#N)CCN(C(=O)OCCc1ccncc1)C2 [Example 106, 3-Cyano-2-[3-(2-methoxy-5-methyl-phenyl)-propanoylamino]-4,7-dihydro-5H-thieno[2,3-c]pyridine-6-carboxylic acid 2-pyridin-4-yl-ethyl ester] | ≤ 300 nM
≥ 40000 nM | COc1ccc(C)cc1CCC(=O)Nc1sc2c(c1C#N)CCN(C(=O)OCCn1ccnc1C)C2 [Example 131, 3-Cyano-2-[3-(2-methoxy-5-methyl-phenyl)-propanoylamino]-4,7-dihydro-5H-thieno[2,3-c]pyridine-6-carboxylic acid 2-(2-methyl-imidazol-1-yl)-ethyl ester] | ≤ 300 nM
≥ 40000 nM | COc1ccc(C)cc1CCC(=O)Nc1sc2c(c1C#N)CCN(C(=O)OCCn1ccnc1)C2 [Example 132, 3-Cyano-2-[3-(2-methoxy-5-methyl-phenyl)-propanoylamino]-4,7-dihydro-5H-thieno[2,3-c]pyridine-6-carboxylic acid 2-imidazol-1-yl-ethyl ester] | ≤ 300 nM
